The results in this text go back to ChEMBL document CHEMBL1687934, “The discovery of potent and long-acting oral factor Xa inhibitors with tetrahydroisoquinoline and benzazepine P4 motifs” (Bioorg Med Chem Lett, 2011).

Common to all, as to type: ADME, organism-based
The nature of data set [1]: Plasma clearance in iv or po dosed Sprague-Dawley rat.
A short description of data set [2]: Volume of distribution at steady state in iv or po dosed Sprague-Dawley rat. The note with it: in vivo, read-out: Vdss.
A short description of data set [3]: Half life in iv or po dosed Sprague-Dawley rat. As to conditions: in vivo.
Data set [4] can be described thus: Oral bioavailability in Sprague-Dawley rat. As to conditions: in vivo.

As usually defined, the half-life is the time needed for the level to fall by half in the phase considered. Read a low half-life as rapid decline. The term bioavailability denotes dose-corrected exposure relative to a reference, in per cent. The low end stands for poor availability, the high end for good availability.

Consider `O=C1[C@@H](NS(=O)(=O)c2ccc3cc(Cl)ccc3c2)CCN1c1ccc2c(c1F)CCNC2`, for which, in data set [1], the clearance was found to be 2.1 mL/min/kg. Further, the Vd in data set [2] stood at 2.4 L/kg. Besides, in data set [3], the half-life is 6.7 h.

In data set [1], `CN1CCc2cc(N3CC[C@H](NS(=O)(=O)/C=C/c4ccc(Cl)s4)C3=O)ccc2C1` gave a clearance of 26 mL/min/kg. The bioavailability in data set [4] amounted to 33%. The Vd in data set [2] turned out to be 0.7 L/kg. Further, the half-life in data set [3] was 0.4 h.

Molecule `O=C1[C@@H](NS(=O)(=O)/C=C/c2ccc(Cl)s2)CCN1c1ccc2c(c1)CCNC2` had a clearance in data set [1] of 3 mL/min/kg. Further, the Vd in data set [2] turned out to be 0.9 L/kg. The molecule also had a half-life in data set [3] of 3.5 h.

As for `O=C1[C@@H](NS(=O)(=O)c2ccc3cc(Cl)ccc3c2)CCN1c1ccc2c(c1)CCNC2`, the clearance in data set [1] is 4 mL/min/kg. The molecule further showed a bioavailability in data set [4] of 24%. Besides, the Vd in data set [2] was 3.6 L/kg. For the same molecule, the half-life in data set [3] was 11 h.

In the case of `O=C1[C@@H](NS(=O)(=O)c2ccc3c(Cl)c[nH]c3c2)CCN1c1ccc2c(c1)CCNC2`, in data set [1], the clearance came out at 7.7 mL/min/kg. In data set [4], this molecule gave a bioavailability below 1%. For the same molecule, in data set [2], the Vd is 2.9 L/kg. This molecule gave a half-life in data set [3] of 6.3 h.

The molecule `O=C1[C@@H](NS(=O)(=O)c2ccc3cc[nH]c3c2)CCN1c1ccc2c(c1)CCNC2` showed a clearance in data set [1] of 12 mL/min/kg. Moreover, in data set [4], the bioavailability was below 1%. In addition, the Vd in data set [2] worked out at 4.1 L/kg. Besides, the half-life in data set [3] is 6.1 h.

For `O=C1[C@@H](NS(=O)(=O)c2ccc3cc(Cl)ccc3c2)CCN1c1cc2c(cc1F)CNCC2`, the clearance in data set [1] amounted to 1.7 mL/min/kg. In data set [4], this molecule gave a bioavailability of 28%. In addition, the Vd in data set [2] was 1 L/kg. This molecule had a half-life in data set [3] of 7.5 h.

For the molecule `O=C1[C@@H](NS(=O)(=O)/C=C/c2ccc(Cl)s2)CCN1c1ccc2c(c1F)CCNC2`, the clearance in data set [1] was found to be 3 mL/min/kg. The bioavailability in data set [4] worked out at 68%. Further, the Vd in data set [2] turned out to be 0.9 L/kg. In addition, the half-life in data set [3] was 3.3 h.

Molecule `O=C1[C@@H](NS(=O)(=O)/C=C/c2ccc(Cl)s2)CCN1c1cc2c(cc1F)CNCC2` yielded a clearance in data set [1] of 1.4 mL/min/kg. The molecule also registered a bioavailability in data set [4] of 43%. Besides, in data set [2], the Vd came to 0.5 L/kg. In data set [3], this molecule had a half-life of 4.9 h.

With `O=C1[C@@H](NS(=O)(=O)c2ccc3c(Cl)c[nH]c3c2)CCN1c1ccc2c(c1F)CCNC2`, the clearance in data set [1] stood at 2.7 mL/min/kg. In addition, the bioavailability in data set [4] was determined as 7%. For the same molecule, the Vd in data set [2] is 1.5 L/kg. Besides, the half-life in data set [3] was 7.8 h.

`O=C1[C@@H](NS(=O)(=O)c2ccc3c(Cl)c[nH]c3c2)CCN1c1cc2c(cc1F)CNCC2` had a clearance in data set [1] of 1.3 mL/min/kg. The molecule also had a bioavailability in data set [4] of 6%. For the same molecule, in data set [2], the Vd was 0.5 L/kg. Moreover, the half-life in data set [3] was 6.2 h.

In the case of `O=C1[C@@H](NS(=O)(=O)/C=C/c2ccc(Cl)s2)CCN1c1ccc2c(c1)CCCNC2`, the clearance in data set [1] amounted to 7.8 mL/min/kg. The molecule also came in with a bioavailability in data set [4] of 45%. Besides, the Vd in data set [2] turned out to be 2.6 L/kg. Also, in data set [3], the half-life was 4.4 h.

The molecule `O=C1[C@@H](NS(=O)(=O)c2ccc3cc(Cl)ccc3c2)CCN1c1ccc2c(c1)CCCNC2` came in with a clearance in data set [1] of 6.8 mL/min/kg. The bioavailability in data set [4] was found to be 10%. The Vd in data set [2] was 5.5 L/kg. This molecule had a half-life in data set [3] of 9.7 h.

In data set [1], `CN[C@@H](C)c1ccc(N2CC[C@H](NS(=O)(=O)c3ccc4cc(Cl)ccc4c3)C2=O)c(F)c1` came in with a clearance of 1.6 mL/min/kg. This molecule came in with a bioavailability in data set [4] above 10%. For the same molecule, the Vd in data set [2] amounted to 2.4 L/kg. In addition, the half-life in data set [3] was 18 h.
